Laboratory results: the supplement of paper PMC13380429

Legend:
[1] = system: A549-ACE2 infected with SARS-CoV-2; assay: cell count relative to DMSO; higher = less toxic; details: 24 h
Caco-2 [2] = assay: cell viability relative to DMSO; higher = less toxic; details: 72 h
Calu-3 [3] = assay: as above; details: 72 h
HepG2 [4] = assay: as above; details: 72 h
U2OS [5] = assay: as above; details: 72 h
Vero E6 [6] = assay: as above; details: 72 h
[7] = system: A549-ACE2 infected with SARS-CoV-2; assay: SARS-CoV-2 infection rate relative to DMSO; higher = more infection; details: 24 h
A549-ACE2 [8] = assay: drug-induced phospholipidosis relative to tamoxifen; higher = more phospholipidosis
[9] = system: A549-ACE2 infected with SARS-CoV-2; assay: morphology score (similarity to uninfected cells); higher = more like uninfected cells; details: 24 h
Caco-2 [10] = assay: relative viability EC50 (midpoint between 100% and the lowest measured viability); higher = less toxic; details: 72 h
Calu-3 [11] = assay: as above; details: 72 h
Vero E6 [12] = assay: as above; details: 72 h
Caco-2 [13] = assay: drug sensitivity score (DSS) for viability; higher = more toxic; extreme values may be limits of the assay; details: 72 h
Calu-3 [14] = assay: as above; details: 72 h
HepG2 [15] = assay: as above; details: 72 h
U2OS [16] = assay: as above; details: 72 h
Vero E6 [17] = assay: as above; details: 72 h
A549-ACE2 [18] = assay: phospholipidosis EC50; higher = less potent phospholipidosis inducer
HepG2 [19] = assay: relative viability EC50 (midpoint between 100% and the lowest measured viability); higher = less toxic; details: 72 h
U2OS [20] = assay: as above; details: 72 h

COc1cc2ncnc(Nc3cccc(Br)c3)c2cc1OC
Details	SARS-CoV-2 infection rate, [7] [%]	cell count, [1] [%]	cell viability, Caco-2 [2] [%]	cell viability, Calu-3 [3] [%]	cell viability, HepG2 [4] [%]	cell viability, U2OS [5] [%]	cell viability, Vero E6 [6] [%]	morphology score, [9]
1 nM	–	–	88.5	102	103	93.7	101	–
10 nM	–	–	109	84.4	86.4	98.4	84.6	–
100 nM	–	–	95.1	96.5	92.6	97.6	102	–
0.3 µM	107	87	–	–	–	–	–	-0.21
1000 nM	–	–	69.6	40.4	92.1	93.2	79.7	–
3 µM	86	105	–	–	–	–	–	0.38
10 µM	33	92	–	–	–	–	–	0.64
10000 nM	–	–	47.2	23.6	71.6	72.9	49.6	–
30 µM	64	29	–	–	–	–	–	-0.06

drug-induced phospholipidosis [%], A549-ACE2 [8]
Details	0.3 µM	0.833333 µM	3.33333 µM	6.66667 µM	10 µM	30 µM
24 h	1.6	-1.36	0.82	3.17	1.18	9.67
48 h	-2.83	-1.17	-1.23	-4.71	-0.44	–
72 h	2.41	-2.62	-2.62	-1.43	0.652	–

Details	drug sensitivity score	relative viability EC50 [µM]
Caco-2 [10]	–	0.774
Caco-2 [13]	6.4	–
Calu-3 [11]	–	0.497
Calu-3 [14]	11.7	–
HepG2 [15]	2.1	–
U2OS [16]	2.1	–
Vero E6 [12]	–	1.17
Vero E6 [17]	5.4	–

O=C(NCCCN1CCC2(CC1)OCc1ccccc12)[C@H]1CCCN1Cc1ccccc1 [BAN-ORL-24]
Details	SARS-CoV-2 infection rate [%]	cell count [%]	cell viability [%]	morphology score	phospholipidosis EC50 [µM]
A549-ACE2 [18], 24 h	–	–	–	–	9.61
A549-ACE2 [18], 48 h	–	–	–	–	9.12
A549-ACE2 [18], 72 h	–	–	–	–	15
Caco-2 [2], 1 nM	–	–	98.3	–	–
Caco-2 [2], 10 nM	–	–	103	–	–
Caco-2 [2], 100 nM	–	–	101	–	–
Caco-2 [2], 1000 nM	–	–	105	–	–
Caco-2 [2], 10000 nM	–	–	92.1	–	–
Calu-3 [3], 1 nM	–	–	104	–	–
Calu-3 [3], 10 nM	–	–	108	–	–
Calu-3 [3], 100 nM	–	–	114	–	–
Calu-3 [3], 1000 nM	–	–	105	–	–
Calu-3 [3], 10000 nM	–	–	87.1	–	–
HepG2 [4], 1 nM	–	–	97.5	–	–
HepG2 [4], 10 nM	–	–	109	–	–
HepG2 [4], 100 nM	–	–	103	–	–
HepG2 [4], 1000 nM	–	–	98.7	–	–
HepG2 [4], 10000 nM	–	–	89.2	–	–
U2OS [5], 1 nM	–	–	105	–	–
U2OS [5], 10 nM	–	–	105	–	–
U2OS [5], 100 nM	–	–	104	–	–
U2OS [5], 1000 nM	–	–	104	–	–
U2OS [5], 10000 nM	–	–	99.2	–	–
Vero E6 [6], 1 nM	–	–	94.8	–	–
Vero E6 [6], 10 nM	–	–	95.8	–	–
Vero E6 [6], 100 nM	–	–	91.6	–	–
Vero E6 [6], 1000 nM	–	–	93.2	–	–
Vero E6 [6], 10000 nM	–	–	99.5	–	–
[1], 0.3 µM	–	98	–	–	–
[1], 3 µM	–	117	–	–	–
[1], 10 µM	–	117	–	–	–
[1], 30 µM	–	123	–	–	–
[7], 0.3 µM	98	–	–	–	–
[7], 3 µM	59	–	–	–	–
[7], 10 µM	33	–	–	–	–
[7], 30 µM	18	–	–	–	–
[9], 0.3 µM	–	–	–	-0.05	–
[9], 3 µM	–	–	–	0.69	–
[9], 10 µM	–	–	–	0.81	–
[9], 30 µM	–	–	–	0.69	–

drug-induced phospholipidosis [%], A549-ACE2 [8]
Details	0.3 µM	0.833333 µM	3.33333 µM	6.66667 µM	10 µM	30 µM
24 h	0.49	5.2	25.6	45.9	72.6	109
48 h	2.06	7.81	23.6	36.2	59.3	110
72 h	5.31	9.96	24.4	35	56.6	125

Details	drug sensitivity score	relative viability EC50 [µM]
Caco-2 [10]	–	> 10
Caco-2 [13]	0	–
Calu-3 [11]	–	> 10
Calu-3 [14]	0	–
HepG2 [15]	0	–
HepG2 [19]	–	> 10
U2OS [16]	0	–
U2OS [20]	–	> 10
Vero E6 [12]	–	> 10
Vero E6 [17]	0	–
